Measurements taken from patent US8173689B2 (Novartis AG, priority 2006, dated 2012).
Read-outs that look alike come from different tables or passages of the source.

Columns and labels:
kinase domain of cKIT = molecular target: T1, kinase domain of cKIT (Homo sapiens, UniProt P10721); assay: Inhibition of cKIT kinase signaling in an in vitro biochemical assay (alphascreen); settings: read-out: cKit percent inhibition
T1 construct: The kinase domain of cKIT was assayed in 50 mM Hepes; purchased Upstate 14-559

[1] = molecular target: T2, cytoplasmic domain of the human CSF-1R (Homo sapiens, UniProt P07333); assay: In vitro kinase assay for colony stimulating factor-1 receptor (AlphaScreen); type: biochemical; settings: read-out: CSF-1R percent inhibition
T2 construct: Recombinant protein corresponding to the cytoplasmic domain of the human CSF-1R; purchased Invitrogen Corporation, Carlsbad, Calif; PV3249
T2 sequence (P07333 539-972 limits assumed): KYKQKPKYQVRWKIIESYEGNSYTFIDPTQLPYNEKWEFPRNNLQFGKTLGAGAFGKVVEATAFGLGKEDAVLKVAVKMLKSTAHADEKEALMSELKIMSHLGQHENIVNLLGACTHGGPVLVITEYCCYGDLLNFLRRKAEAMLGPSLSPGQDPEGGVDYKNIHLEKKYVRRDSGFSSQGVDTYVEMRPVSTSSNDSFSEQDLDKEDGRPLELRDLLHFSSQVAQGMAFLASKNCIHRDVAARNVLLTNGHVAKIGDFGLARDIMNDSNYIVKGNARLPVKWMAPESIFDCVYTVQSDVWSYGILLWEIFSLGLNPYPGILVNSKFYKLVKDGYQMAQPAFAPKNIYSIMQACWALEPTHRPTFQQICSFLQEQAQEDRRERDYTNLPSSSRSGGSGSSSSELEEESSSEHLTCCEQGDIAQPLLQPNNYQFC
Procedure, shortened: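 Test compounds, serially diluted threefold starting at 25 μM, were mixed with Hepes buffer (pH 7.5, Mg2+/Mn2+, DTT, BSA, Tween 80) containing 1 μM ATP. Recombinant kinase was present at 4 nM. After stopping, beads were added and plates were read the next day by AlphaScreen.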

kinase domain of PDGFRβ = molecular target: T3, kinase domain of PDGFRβ (Homo sapiens, UniProt P09619); assay: Inhibition of PDGFRb kinase signaling in an in vitro biochemical assay (alphascreen); settings: read-out: PDGFRβ percent inhibition
T3 construct: The kinase domain of PDGFRβ was assayed in 50 mM Hepes; purchased Invitrogen P3082

[2] = system: MNFS60 (murine AML cells); assay: Cell viability assay in MCSF dependent MNFS60 cells (Cell Titer Glo); type: cell-based; settings: Mus musculus, tested at about 1 μM, read-out: M-NFS-60 CP percent inhibition
Procedure, shortened: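 Three-fold serial compound dilutions, prepared in DMSO at 500× the final level, were applied alongside MCSF (final 10 ng/ml). Incubation lasted 72 hrs (37° C., 5% CO2) before CellTiter-Glo addition. Triplicate points were curve-fitted for EC50.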

[3] = tested at about 1 μM, compounds of Table 3

T3 sequence (P09619 600-962 limits assumed): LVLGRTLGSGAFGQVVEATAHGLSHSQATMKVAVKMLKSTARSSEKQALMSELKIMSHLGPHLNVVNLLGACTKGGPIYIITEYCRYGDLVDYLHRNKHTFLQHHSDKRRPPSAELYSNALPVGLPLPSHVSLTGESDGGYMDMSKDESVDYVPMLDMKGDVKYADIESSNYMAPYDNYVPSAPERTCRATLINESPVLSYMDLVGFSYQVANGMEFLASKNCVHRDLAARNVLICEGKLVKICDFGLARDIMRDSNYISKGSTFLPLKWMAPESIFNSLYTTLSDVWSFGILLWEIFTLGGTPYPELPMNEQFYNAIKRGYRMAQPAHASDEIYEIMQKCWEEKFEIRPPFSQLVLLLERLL
T1 sequence (P10721 589-937 limits assumed): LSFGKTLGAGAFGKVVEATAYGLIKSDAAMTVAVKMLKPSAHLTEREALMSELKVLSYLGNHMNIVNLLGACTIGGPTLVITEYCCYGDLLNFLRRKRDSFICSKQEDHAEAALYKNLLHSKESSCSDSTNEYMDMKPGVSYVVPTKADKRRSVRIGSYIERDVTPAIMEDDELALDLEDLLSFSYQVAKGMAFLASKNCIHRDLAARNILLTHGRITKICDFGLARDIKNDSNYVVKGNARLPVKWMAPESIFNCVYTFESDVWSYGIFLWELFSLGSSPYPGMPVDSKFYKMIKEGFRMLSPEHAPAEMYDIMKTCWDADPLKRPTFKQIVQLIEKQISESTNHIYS

| SMILES | inhibition at 1 µM (kinase domain of cKIT; [3]) | inhibition at 1 µM [1, 3] | inhibition at 1 µM (kinase domain of PDGFRβ; [3]) | inhibition at 1 µM ([2]; compounds of Table 3) | inhibition at 1 µM ([1]; tested at about 1 μM) | inhibition at 1 µM (kinase domain of PDGFRβ; tested at about 1 μM) | inhibition at 1 µM (kinase domain of cKIT; tested at about 1 μM) | inhibition at 1 µM ([2]; MCSF dependent MNFS60 cells) | also measured |
| --- | --- | --- | --- | --- | --- | --- | --- | --- | --- |
| Cn1cc(-c2cnccc2Oc2ccc3nc(N[C@@H]4CCCC[C@H]4O)sc3c2)cn1 [Example 189] | 31% | 100% | 23% | 26% | – | – | – | – | – |
| CNC(=O)c1cc(Oc2ccc3nc(NC4CCC4)oc3c2)ccn1 [Compound 22, 4-(2-Cyclobutylamino-benzooxazol-6-yloxy)-pyridine-2-carboxylic acid methylamide] | 6% | 100% | 21% | 36% | 21% | 0% | – | – | – |
| COC[C@H](Nc1nc2ccc(Oc3ccnc4ccccc34)cc2s1)[C@@H](O)c1ccccc1 [Example 233, (1S,2S)-3-methoxy-1-phenyl-2-(6-(quinolin-4-yloxy)benzo[d]thiazol-2-ylamino)propan-1-ol] | 85% | 100% | 84% | 59% | – | – | – | – | – |
| CNc1cc(Oc2ccc3nc(NCC4CCCCC4)sc3c2)ccn1 [Example 338, N-(cyclohexylmethyl)-6-(2-(methylamino)pyridin-4-yloxy)benzo[d]thiazol-2-amine] | – | – | – | – | 100% | 52% | 51% | 44% | – |
| CNC(=O)c1cc(Oc2ccc3nc(NCC4CCCN(C(=O)NC(C)C)C4)sc3c2)ccn1 (stereo not shown) [Example 337, 4-(2-((1-(isopropylcarbamoyl)piper-idin-3-yl)methylamino)benzo[d]thiazol-6-yloxy)-N-methylpicolinamide] | – | – | – | – | 95% | 0% | 14% | 19% | – |
| C[C@H](Nc1nc2ccc(Oc3ccnc(-c4ccnn4C)c3)cc2s1)C1CCCCC1 [Example 277, (S)-N-(1-cyclohexylethyl)-6-(2-(1-methyl-1H-pyrazol-5-yl)pyridin-4-yloxy)benzo[d]thiazol-2-amine] | 26% | 100% | 5% | 24% | – | – | – | – | – |
| COCCNc1cc(Oc2ccc3nc(NCC4CCCCC4)sc3c2)ccn1 [Example 343, N-(cyclohexylmethyl)-6-(2-(2-methoxyethylamino)pyridin-4-yloxy)benzo[d]thiazol-2-amine] | – | – | – | – | 100% | 28% | 59% | 57% | – |
| CNC(=O)c1cc(Oc2ccc3nc(NCc4ccc5c(c4)OCCO5)oc3c2)ccn1 [Compound 122, 4-{2-[(2,3-Dihydro-benzo-[1,4]dioxin-6-ylmethyl)-amino]-benzooxazol-6-yloxy}-pyridine-2-carboxylic acid methylamide] | – | – | – | – | 100% | 0% | 53% | – | inhibition at 1 µM ([2]; MNFS60 cells): 19% |
| CNC(=O)c1cc(Oc2ccc3nc(NCc4cc(Cl)ccc4OC)oc3c2)ccn1 [Compound 114, 4-[2-(5-Chloro-2-methoxy-benzylamino)-benzooxazol-6-yloxy]-pyridine-2-carboxylic acid methylamide] | – | – | – | – | 100% | 15% | 92% | – | inhibition at 1 µM ([2]; MNFS60 cells): 36% |
| CN(C)CCNC(=O)c1cc(Oc2ccc3nc(NCC4CCCCC4)sc3c2)ccn1 [Compound 160, 4-(2-(cyclohexylmethyl-amino)benzothiazol-6-yloxy)-N-(2-(dimethylamino)-ethyl)pyridine-2-carboxamide] | – | – | – | – | 99% | 18% | 13% | – | inhibition at 1 µM ([2]; MNFS60 cells): 30% |
| C[C@H](Nc1nc2ccc(Oc3ccnc(C(=O)NN(C)C)c3)cc2s1)C1CCCCC1 [Example 289, (S)-4-(2-(1-cyclohexylethylamino)benzo[d]thiazol-6-yloxy)-N',N'-dimethylpicolinohydrazide] | 28% | 99% | 2% | 0% | – | – | – | – | – |
| O[C@@H]1CCCC[C@H]1Nc1nc2ccc(Oc3ccncc3-c3cn[nH]c3)cc2s1 [Example 188] | – | – | – | 38% | – | – | – | – | inhibition at 1 µM (kinase domain of cKIT): 55%; inhibition at 1 µM [1]: 100%; inhibition at 1 µM (kinase domain of PDGFRβ): 35% |
| CNC(=O)c1cc(Oc2ccc3nc(NCCc4cccnc4)sc3c2)ccn1 [Example 315, N-methyl-4-(2-(2-(pyridin-3-yl)ethylamino)benzo[d]thiazol-6-yloxy)picolinamide] | – | – | – | – | 98% | 0% | 17% | 27% | – |
| CNC(=O)c1cc(Oc2ccc3nc(NCc4c(Cl)cccc4Cl)sc3c2)ccn1 [Compound 158, 4-[2-(2,6-Dichloro-benzylamino)-benzothiazol-6-yloxy]-pyridine-2-carboxylic acid methylamide] | – | – | – | – | 99% | 2% | 11% | – | inhibition at 1 µM ([2]; MNFS60 cells): 1% |
| FC(F)(F)Oc1ccc2c(Oc3ccc4nc(NCC5CCCCC5)sc4c3)ccnc2c1 [Example 228, N-(cyclohexylmethyl)-6-(7-(trifluoromethoxy)quinolin-4-yloxy)benzo[d]thiazol-2-amine] | 70% | 100% | 26% | 32% | – | – | – | – | – |
| CNC(=O)c1cc(Oc2ccc3nc(Nc4cccc(CCN5CCCCC5)c4)oc3c2)ccn1 [Compound 58, 4-{2-[3-(2-Piperidin-1-yl-ethyl)-phenylamino]-benzooxazol-6-yloxy}-pyridine-2-carboxylic acid methylamide] | – | – | – | – | 98% | 85% | 48% | – | inhibition at 1 µM ([2]; MNFS60 cells): 30% |
| CNC(=O)c1cc(Oc2ccc3nc(NCCc4cccc5c4OCCO5)oc3c2)ccn1 [Compound 123, 4-{2-[2-(2,3-Dihydro-benzo-[1,4]dioxin-5-yl)-ethylamino]-benzooxazol-6-yloxy}-pyridine-2-carboxylic acid methylamide] | – | – | – | – | 99% | 2% | 15% | – | inhibition at 1 µM ([2]; MNFS60 cells): 0% |
| CNC(=O)c1cc(Oc2ccc3nc(N[C@H]4CCCN(C(C)=O)C4)sc3c2)ccn1 [Example 304, (S)-4-(2-(1-acetylpiperidin-3-ylamino)benzo[d]thiazol-6-yloxy)-N-methylpicolinamide] | – | – | – | – | 100% | 18% | 9% | 23% | – |
| Nc1ncc(-c2cc(Oc3ccc4nc(N[C@@H]5CCCC[C@H]5O)sc4c3)ccn2)cc1C(F)(F)F [Example 282, (1R,2R)-2-(6-(6'-amino-5'-(trifluoromethyl)-2,3'-bipyridin-4-yloxy)benzo[d]thiazol-2-ylamino)cyclohexanol] | 23% | 99% | 7% | 22% | – | – | – | – | – |
| OC[C@@H](Nc1nc2ccc(Oc3ccnc4ccccc34)cc2s1)C1CCCCC1 [Example 236, (S)-2-cyclohexyl-2-(6-(quinolin-4-yloxy)benzo[d]thiazol-2-ylamino)ethanol] | 100% | 100% | 97% | 100% | – | – | – | – | – |
| CC(C)C[C@@H](CO)Nc1nc2ccc(Oc3ccnc4ccccc34)cc2s1 [Example 238, (S)-4-methyl-2-(6-(quinolin-4-yloxy)benzo[d]thiazol-2-ylamino)pentan-1-ol] | 100% | 100% | 90% | 100% | – | – | – | – | – |
| CNC(=O)c1cc(Oc2ccc3nc(N[C@@H]4CCC[C@H]4O)sc3c2)ccn1 [Example 324, 4-(2-((1R,2R)-2-hydroxycyclopentylamino)benzo[d]thiazol-6-yloxy)-N-methylpicolinamide] | – | – | – | – | 99% | 19% | 21% | 15% | – |
| CNC(=O)c1cc(Oc2ccc3nc(N[C@H]4CCC[C@H]4O)sc3c2)ccn1 [Example 322, 4-(2-((1S,2R)-2-hydroxycyclopentylamino)benzo[d]thiazol-6-yloxy)-N-methylpicolinamide] | – | – | – | – | 99% | 11% | 18% | 21% | – |
